Counter-ions that a name gives are not always drawn. Like-named read-outs stand apart in the source and are kept apart here.
What was measured:
[1] = test system: IFNAR1; format: cell-based, human
[2] = test system: IFNAR1 Ser535 phosphorylation; format: cell-based, human
[3] = test system: IFNAR1 Ser535 phosphorylation; format: cell-based, human; remark: listed apart in the source
[4] = test system: IFNAR1 Ser532 phosphorylation; format: cell-based, human
[5] = test system: Stat1; assay: Stat1 tyrosine phosphorylation in response to IFN-α, immunoblot; format: cell-based, human
[6] = test system: IFNAR1
[7] = test system: ligand-inducible IFNAR1 degron kinase activity; assay: Phosphorylation-binding assay: GST-IFNAR1 phosphorylated by CK1α-depleted lysates of IFN-α-treated cells, then binding of 35S-labeled β-Trcp2; format: biochemical, human; details: inhibitor added in vitro: H89 200 nM, BAY43-9006 50 nM, Bis-I 25 nM, Gö6976 25 nM, LY294002 1.5 μM, SP600125 100 nM, D4476 400 nM, SB203580 100 nM
Protocol: For some binding assays, the lysates from 293T cells (treated for various tunes with IFN-α, 2000 IU/mL) were depleted of CK1α (as described previously (Liu, et al., 2009, Mal Cell Biol 29(24):6401-12) were incubated with GST-IFNAR1 proteins (wild type or S535,539A mutant that migrates slower on SDS-PAGE due to the presence of four additional amino acids in the linker), ATP and kinase inhibitors (as indicated) for 30 min at 30° C. After that, GST-IFNAR1 were purified and incubated with in vitro translated and 35S-methionine-labeled 3-Trcp2 for 1 h at 4° C.; this binding was later analyzed by autoradiography and Coomassie staining. In vitro serine phosphorylation of GST-IFNAR1 (analyzed by autoradiography or IB with pS535 antibody) by cell extracts or PKD preparations and tyrosine phosphorylation of GST-PKD2 by Tyk2 was carried out and analyzed as described elsewhere herein.
For other binding assays, the lysates from 293T cells (treated for various times with IFN-α, 2000 IU/mL) underwent two rounds of immunodepletion of CK1α as described elsewhere (Liu, et al., 2009, Mol Cell Biol 29(24):6401-12). GST-IFNAR1 proteins (wild type or S535,539A mutant that migrates slower on SDS-PAGE due to the presence of four additional amino acids in the linker (Liu et al., 2009, Cell Host Microbe 5(1):72-83)) were expressed and purified from bacterial cells using glutathione Sepharose. Purified bacterial proteins (2 μg) were incubated in the presence of CK1α-depleted cell lysates (5 μg), unlabeled ATP (0.5 mM) in total volume of 20 μL (containing 25 mM Tris-HCL pH 7.5, 5 mM MgCl2, 100 mM KCl, 1 mM EGTA, 1 mM Na3VO4, 0.1 mM DTT and 3.5% glycerol) for 30 min at 30° C. When indicated, the following kinase inhibitors were added to the reaction in I pi, of DMSO to the final concentration indicated: H89 (200 nM), BAY43-9006 (50 nM), Bis-I (25 nM), Gö6976 (25 nM), LY294002 (1.5 μM), SP600125 (100 nM), D4476 (400 nM), SB203580 (100 nM). The reactions were stopped by placing the tubes on ice and adding 150 μL of ice-cold binding buffer (PBS supplemented with 0.1% NP40 and 50 mM NaF) and incubated with glutathione Sepharose beads (20 μL) for 2 h at 4° C. The beads were then washed three times with 0.5 mL of binding buffer and incubated with 2 μL of in vitro translated and 35S-methionine-labeled13-Trcp2 for 1 h at 4° C. Beads were then washed three times with 1 mL of binding buffer, and the proteins were eluted using Laemmli buffer, resolved by SDS-PAGE, and analyzed by autoradiography and Coomassie staining.

[8] = biological target: T1, PKD2 (Homo sapiens, UniProt Q9BZL6); assay: In vitro phosphorylation of GST-IFNAR1 on Ser535 by purified GST-PKD2; format: biochemical; parameters: made in house; host or cells: 293T cells (human), transient expression, glutathione pull-down; details: Gö6976 20-200 nM
T1 sequence (Q9BZL6 1-878): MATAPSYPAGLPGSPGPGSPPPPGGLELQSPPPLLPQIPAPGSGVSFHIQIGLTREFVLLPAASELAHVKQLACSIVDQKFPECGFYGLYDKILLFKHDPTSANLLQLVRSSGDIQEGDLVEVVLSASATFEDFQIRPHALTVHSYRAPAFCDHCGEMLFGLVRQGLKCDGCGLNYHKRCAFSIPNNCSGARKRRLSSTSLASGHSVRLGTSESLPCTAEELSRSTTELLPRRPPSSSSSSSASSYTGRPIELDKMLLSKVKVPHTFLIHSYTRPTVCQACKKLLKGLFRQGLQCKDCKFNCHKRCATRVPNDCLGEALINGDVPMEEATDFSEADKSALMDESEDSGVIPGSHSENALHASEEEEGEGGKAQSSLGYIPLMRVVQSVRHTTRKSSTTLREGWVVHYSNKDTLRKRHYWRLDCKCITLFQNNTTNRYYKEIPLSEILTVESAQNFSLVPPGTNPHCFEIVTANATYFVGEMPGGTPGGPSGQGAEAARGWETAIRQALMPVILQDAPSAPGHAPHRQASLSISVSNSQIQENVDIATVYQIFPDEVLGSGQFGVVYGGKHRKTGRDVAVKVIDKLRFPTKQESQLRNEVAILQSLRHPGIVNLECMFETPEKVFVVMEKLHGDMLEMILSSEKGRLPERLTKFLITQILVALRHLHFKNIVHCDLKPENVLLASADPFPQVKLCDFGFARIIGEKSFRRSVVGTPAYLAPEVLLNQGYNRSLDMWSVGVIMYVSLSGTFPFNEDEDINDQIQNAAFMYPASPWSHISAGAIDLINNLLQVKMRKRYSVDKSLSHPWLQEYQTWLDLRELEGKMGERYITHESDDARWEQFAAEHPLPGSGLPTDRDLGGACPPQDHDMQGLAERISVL
Protocol: In vitro phosphorylation of GST-IFNAR1 by cell extracts or PKD preparations (via immunopurification or GST pulldown) was carried out in kinase buffer (50 mM Tris-HCl pH 7.4, 10 mM MgC12, and 2 mM DTT) with either 0.2 mM of unlabeled ATP or 10 μCi of γ-32P ATP for 20 min at 30° C. The products of this reaction were separated by SDS-PAGE and analyzed either by immunoblotting using anti-pS535 antibody or by autoradiography.

[9] = test system: protein kinase D (PKD); details: literature (Gschwendt et al., 1996; Sharlow et al., 2008); cited from earlier work
[10] = test system: IFNAR1 Ser535 phosphorylation; assay: IFN-α-induced Ser535 (degron) phosphorylation of IFNAR1 in cells, IP-immunoblot with anti-pS535; format: cell-based, human
Protocol: Immunoprecipitation and immunoblotting procedures are described elsewhere (Fuchs et al, 1999, Oncogene 18:2039-2046). Protein degradation was carried out by cycloheximide (CHX, used at 20 μg/ml) chase. IFNAR1 internalization assay was carried out using the Fluorescence-based assay as described elsewhere (Kumar et al., 2007, J Cell Biol 179:935-950). BAY 43-9006 was obtained as a gift. Recombinant human IFN-a2 (Roferon) was purchased from Roche. Other reagents or inhibitors were purchased from commercial vendors.
Antibodies against Flag, GST and j3-actin (Sigma), HA (12CA, Roche), CK1α, PICD1/2 (PKCμ), PKD3 (PKCν), Tyk2, intracellular domain of hIFNAR1 and PKR, (Santa Cruz), anti-pan-phospho-tyrosine (4G10), phospho-Stat1 and Stat1 (Cell signaling), phospho-S710 of PKD2 (Biosource), PKD2 (Bethyl Laboratories), mIFNAR1 (Leinco) and ubiquitin (FK2, Biomol) were purchased. AA3, GB8 and EAl2 antibodies which recognize endogenous IFNAR1 (Goldman et al., 1999) and antibodies against IFNAR1 phosphorylated on Ser535 (pS535; (Kumar et al., 2004, J Biol Chem 279:46614-46620)) were described previously. Secondary antibodies conjugated to horseradish peroxidase were purchased from Chemicon and LI-COR. Immunoprecipitation and immunoblotting procedures are described elsewhere (Fuchs et al, 1999, Oncogene 18:2039-2046). Protein degradation was carried out by cycloheximide (CHX) chase in the presence of CHX (20 μg/ml). Immunoblot detection and quantification were carried out using the LI-COR's Odyssey Infrared Imaging System.

[11] = test system: IFN signaling; assay: Sangivamycin effect on IFN signaling (FIGS. 37-38)
[12] = biological target: T1, PKD2; assay: Sangivamycin inhibition of PKD2 (FIGS. 37-38)

CN [methylamine HCl]
thapsigargin-induced decrease of IFNAR1 levels ([1]; 293T cells pre-treated with MA 20 mM 1 h): prevented

NCCNS(=O)(=O)c1ccc(Cl)c2ccncc12 [CKI-7]
ligand-independent Ser535 phosphorylation of Flag-IFNAR1 [2]: decreased

C/C=C(/C)C(=O)O[C@H]1C(C)=C2[C@H]([C@@H]1OC(=O)CCCCCCC)[C@@](C)(OC(C)=O)C[C@H](OC(=O)CCC)[C@@]1(O)[C@H]2OC(=O)[C@@]1(C)O [thapsigargin]
Ser535 phosphorylation of IFNAR1 in cells with wild type (WT) or catalytically inactive (KR) Tyk2 ([3]; 2fTGH-derived Tyk2 WT vs KR cells, 30 min): comparable levels
phosphorylation of endogenous IFNAR1 on Ser535 in the absence of IFN ([3]; 293T cells, TG 1 μM 30 min, DTT 5 mM 30 min): stimulated
activation of PERK assessed via phosphorylation of eIF2α ([2]; 293T cells, TG 1 μM 30 min): caused activation of PERK
extent of ubiquitination of wild type IFNAR1 ([4]; Flag-IFNAR1 in 293T cells, TG 1 μM): noticeably increased
phosphorylation of endogenous IFNAR1 on Ser532 and Ser535 ([4]; HeLa cells, TG 1 μM 30 min): led to phosphorylation of endogenous IFNAR1 on both Ser532 and Ser535
tyrosine phosphorylation of Stat1 induced by IFN-α ([5]; 293T cells pre-treated with TG 1 μM 4 h, IFNα 50 IU/ml 30 min): noticeably decreased
half life of IFNAR1 ([1]; 293T cells treated with cycloheximide, TG 1 μM): decreased
levels of IFNAR1 ([1]; human 293T cells, TG 1 μM, within two hours, absence of IFN): decreased
ubiquitination of IFNAR1 ([1]; human fibrosarcoma cells with WT or KR Tyk2 and 293T cells): induced

OO [hydrogen peroxide]
phosphorylation of endogenous IFNAR1 on Ser535 in the absence of IFN-α ([6]; HeLa cells): noticeably stimulated

NC(=O)c1ccc(-c2nc(-c3ccc4c(c3)OCCO4)c(-c3ccccn3)[nH]2)cc1 [D4476]
recruitment of β-Trcp2 to GST-IFNAR1 (phosphorylation-binding assay) [7]: noticeable inhibition
Ser535 phosphorylation of IFNAR1 in response to TG [2]: noticeably attenuated
TG-induced phosphorylation of eIF2α [2]: comparable induction
eIF2a phosphorylation in VSV-infected cells [2]: without affecting
virus-induced S535 phosphorylation of IFNAR1 [2]: markedly attenuated
virus-induced downregulation of IFNAR1 [2]: markedly attenuated

O=S(=O)(NCCNC/C=C/c1ccc(Br)cc1)c1cccc2cnccc12 [H89]
recruitment of β-Trcp2 to GST-IFNAR1 (phosphorylation-binding assay) [7]: noticeable inhibition

Cn1c2ccccc2c2c3c(c4c5ccccc5n(CCC#N)c4c21)CNC3=O [Gö6976]
in vitro phosphorylation of GST-IFNAR1 on Ser535 by GST-PKD2 [8]: decreased the efficacy of IFNAR1 phosphorylation in a dose dependent manner
recruitment of β-Trcp2 to GST-IFNAR1 (phosphorylation-binding assay) [7]: dramatic inhibition
inhibition of / specificity against PKD [9]: shown to inhibit
induction of Ser535 phosphorylation of Flag-IFNAR1 by IFN-α ([10]; U3A cells stably expressing Flag-IFNAR1, inhibitor pre-treatment): noticeably decreased
basal Ser535 (degron) phosphorylation of overexpressed IFNAR1 ([10]; U3A cells stably expressing Flag-IFNAR1, no ligand): neither the PKD inhibitor Gö6976 nor siRNA against PKD2 decreases

VEGF
phosphorylation of Flag-IFNAR1 on Ser535 ([6]; U3A cells stably expressing Flag-IFNAR1, VEGF 100 ng/ml): increased
ubiquitination of IFNAR1 ([6]; U3A-Flag-IFNAR1 cells, VEGF treatment): stimulated
Stat1 phosphorylation in response to IFN-α ([5]; human umbilical vein endothelial cells, VEGF 100 ng/ml 2 h, IFN-α 15 min): noticeably inhibits

NC(=O)c1cn([C@@H]2O[C@H](CO)[C@@H](O)[C@H]2O)c2ncnc(N)c12 [sangivamycin]
efficiency of IFN signaling [11]: increases the efficiency of IFN signaling
inhibition of PKD2 [12]: inhibits

CN(C)CCCn1cc(C2=C(c3c[nH]c4ccccc34)C(=O)NC2=O)c2ccccc21 [Bis I, bisindolylmaleimide I]
recruitment of β-Trcp2 to GST-IFNAR1 (phosphorylation-binding assay) [7]: did not affect

CNC(=O)c1cc(Oc2ccc(NC(=O)Nc3ccc(Cl)c(C(F)(F)F)c3)cc2)ccn1 [BAY 43-9006]
recruitment of β-Trcp2 to GST-IFNAR1 (phosphorylation-binding assay) [7]: not inhibited

C[S+]([O-])c1ccc(-c2nc(-c3ccncc3)c(-c3ccc(F)cc3)[nH]2)cc1 (centres unmarked) [SB203580]
recruitment of β-Trcp2 to GST-IFNAR1 (phosphorylation-binding assay) [7]: not inhibited
